Common to all, as to experiment: relative viability (nuclei count vs DMSO), 5 days (fraction); higher = more cells survive
Compound in assay [1]: CC(C)N(CCCNC(=O)Nc1ccc(C(C)(C)C)cc1)C[C@H]1O[C@@H](n2ccc3c(N)ncnc32)[C@H](O)[C@@H]1O + COc1cc2c(Oc3ccc(NC(=O)C4(C(=O)Nc5ccc(F)cc5)CC4)cc3F)ccnc2cc1OCCCN1CCOCC1 [Foretinib] (partner 0.25 µM)
The gist of the method: (§1)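 Each reported value is a median over duplicate plates. It expresses relative viability: treated-well nuclei count divided by vehicle-well nuclei count. Lung cancer cell lines in 1536-well plates were dosed by pin tool a day after seeding, alone with one drug or with a fixed anchor-drug dose plus five library-drug doses (not always all listed) in √10 steps, and nuclei were counted after 5 days.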

Compound in assay [2]: CC(C)N(CCCNC(=O)Nc1ccc(C(C)(C)C)cc1)C[C@H]1O[C@@H](n2ccc3c(N)ncnc32)[C@H](O)[C@@H]1O + CC(C)C[C@H](NC(=O)[C@H](Cc1ccccc1)NC(=O)c1cnccn1)B(O)O [Bortezomib] (partner 0.002 µM)
The essentials: as §1

Compound in the assay “Shikonin + Tozasertib”: CC(C)=CC[C@@H](O)C1=CC(=O)c2c(O)ccc(O)c2C1=O [Shikonin] + Cc1cc(Nc2cc(N3CCN(C)CC3)nc(Sc3ccc(NC(=O)C4CC4)cc3)n2)n[nH]1 [Tozasertib] (partner 0.1 µM)
The essentials:
as §1

Compound in assay [3]: CC(C)N(CCCNC(=O)Nc1ccc(C(C)(C)C)cc1)C[C@H]1O[C@@H](n2ccc3c(N)ncnc32)[C@H](O)[C@@H]1O + C[C@]1(O)C[C@@H](c2nc(-c3ccc4ccc(-c5ccccc5)nc4c3)c3c(N)nccn32)C1 [Linsitinib] (partner 1 µM)
The essentials:
as §1

In the case of PC-14, the relative viability in assay [1] (first compound 0.08 µM) is 0.912; in assay [1] (first compound 0.253 µM), 0.944; in assay [1] (first compound 0.8 µM), 0.896; in assay [1] (first compound 2.53 µM) it was 0.95; in assay [1] (first compound 8 µM), 0.792; in assay [2] (first compound 0.08 µM), 0.83. The relative viability worked out at 0.852 in assay [2] (first compound 0.253 µM); 0.859 in assay [2] (first compound 0.8 µM); 1 in assay [2] (first compound 2.53 µM); 0.743 in assay [2] (first compound 8 µM); 0.619 in the assay with Shikonin + Tozasertib (first compound 0.01 µM); 0.638 with Shikonin + Tozasertib (first compound 0.1 µM). For the same cell line, the relative viability came to 0.743 with Shikonin + Tozasertib (first compound 0.3162 µM); 0.652 in the assay with Shikonin + Tozasertib (first compound 1 µM); 0.962 in assay [3] (first compound 0.08 µM); 0.969 in assay [3] (first compound 0.253 µM); 0.979 in assay [3] (first compound 0.8 µM); 0.908 in assay [3] (first compound 2.53 µM). Besides, the relative viability in assay [3] (first compound 8 µM) turned out to be 0.857.

With RERF-LC-KJ, the relative viability turned out to be 0.906 in assay [1] (first compound 0.08 µM); 0.814 in assay [1] (first compound 0.253 µM); 0.888 in assay [1] (first compound 0.8 µM); 0.794 in assay [1] (first compound 2.53 µM); 0.79 in assay [1] (first compound 8 µM); 0.97 in assay [2] (first compound 0.08 µM). Further, the relative viability in assay [2] (first compound 0.253 µM) came out at 1.15; in assay [2] (first compound 0.8 µM), 1.09; in assay [2] (first compound 2.53 µM), 1.04; in assay [2] (first compound 8 µM), 0.971; with Shikonin + Tozasertib (first compound 0.01 µM), 0.55; with Shikonin + Tozasertib (first compound 0.1 µM), 0.44. Further, the relative viability in the assay with Shikonin + Tozasertib (first compound 0.3162 µM) turned out to be 0.499; in the assay with Shikonin + Tozasertib (first compound 1 µM) it was 0.388; in assay [3] (first compound 0.08 µM), 0.85; in assay [3] (first compound 0.253 µM), 0.93; in assay [3] (first compound 0.8 µM), 0.895; in assay [3] (first compound 2.53 µM) it was 0.897. In addition, in assay [3] (first compound 8 µM), the relative viability is 0.794.

On to SK-LU-1, for which the relative viability amounted to 0.904 in assay [1] (first compound 0.08 µM); 0.919 in assay [1] (first compound 0.253 µM); 0.898 in assay [1] (first compound 0.8 µM); 0.911 in assay [1] (first compound 2.53 µM); 0.754 in assay [1] (first compound 8 µM); 1.22 in assay [2] (first compound 0.08 µM). Also, the relative viability is 1.02 in assay [2] (first compound 0.253 µM); 1.18 in assay [2] (first compound 0.8 µM); 1.31 in assay [2] (first compound 2.53 µM); 1.03 in assay [2] (first compound 8 µM); 0.317 in the assay with Shikonin + Tozasertib (first compound 0.01 µM); 0.338 with Shikonin + Tozasertib (first compound 0.1 µM). Besides, the relative viability is 0.351 with Shikonin + Tozasertib (first compound 0.3162 µM); 0.3 with Shikonin + Tozasertib (first compound 1 µM); 0.94 in assay [3] (first compound 0.08 µM); 1.33 in assay [3] (first compound 0.253 µM); 1.17 in assay [3] (first compound 0.8 µM); 1.41 in assay [3] (first compound 2.53 µM). Further, the relative viability in assay [3] (first compound 8 µM) was determined as 0.953.

As to SW 1573, the relative viability in assay [1] (first compound 0.08 µM) was found to be 0.81; in assay [1] (first compound 0.253 µM), 0.707; in assay [1] (first compound 0.8 µM), 0.825; in assay [1] (first compound 2.53 µM) it was 0.927; in assay [1] (first compound 8 µM), 1.08; in assay [2] (first compound 0.08 µM) it was 1.13. The relative viability came out at 1.07 in assay [2] (first compound 0.253 µM); 1.06 in assay [2] (first compound 0.8 µM); 1.12 in assay [2] (first compound 2.53 µM); 0.864 in assay [2] (first compound 8 µM); 0.194 in the assay with Shikonin + Tozasertib (first compound 0.01 µM); 0.24 in the assay with Shikonin + Tozasertib (first compound 0.1 µM). For the same cell line, the relative viability with Shikonin + Tozasertib (first compound 0.3162 µM) worked out at 0.188; with Shikonin + Tozasertib (first compound 1 µM) it was 0.0571; in assay [3] (first compound 0.08 µM), 0.603; in assay [3] (first compound 0.253 µM), 0.872; in assay [3] (first compound 0.8 µM), 0.848; in assay [3] (first compound 2.53 µM), 0.976. Moreover, the relative viability in assay [3] (first compound 8 µM) amounted to 0.825.

UMC-11: the relative viability in assay [1] (first compound 0.08 µM) is 0.979; in assay [1] (first compound 0.253 µM), 0.984; in assay [1] (first compound 0.8 µM), 1.06; in assay [1] (first compound 2.53 µM), 0.975; in assay [1] (first compound 8 µM) it was 1.02; in assay [2] (first compound 0.08 µM) it was 0.654. Moreover, the relative viability in assay [2] (first compound 0.253 µM) was determined as 0.531; in assay [2] (first compound 0.8 µM) it was 0.673; in assay [2] (first compound 2.53 µM) it was 0.79; in assay [2] (first compound 8 µM), 0.617; with Shikonin + Tozasertib (first compound 0.01 µM), 0.185; with Shikonin + Tozasertib (first compound 0.1 µM), 0.213. In addition, the relative viability with Shikonin + Tozasertib (first compound 0.3162 µM) was 0.203; in the assay with Shikonin + Tozasertib (first compound 1 µM), 0.169; in assay [3] (first compound 0.08 µM), 0.953; in assay [3] (first compound 0.253 µM), 0.96; in assay [3] (first compound 0.8 µM) it was 1.07; in assay [3] (first compound 2.53 µM), 1.02. For the same cell line, in assay [3] (first compound 8 µM), the relative viability was 0.889.
